Key:
Experiment in all cases: relative viability (nuclei count vs DMSO), 5 days (fraction); higher = more cells survive
[1] = test system: 201T
In short: (§1)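 Values are medians from duplicate plates. Each reflects relative viability, defined as the nuclei count of treated wells over that of vehicle wells. Lung cancer cell lines in 1536-well plates were pin-tool dosed one day after seeding with one drug alone or with a fixed anchor-drug dose plus five library-drug doses (not always all listed) in √10 steps, then fixed, stained and imaged at 4× after 5 days.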

[2] = test system: COR-L 105
In short: as §1

[3] = test system: ChaGo-K-1
In short: as §1

[4] = test system: EKVX
In short: as §1

[5] = test system: H3255
In short: as §1

[6] = test system: HARA
In short: as §1

[7] = test system: HCC-827
In short: as §1

[8] = test system: HOP-62
In short: as §1

[9] = test system: LCLC-103H
In short: as §1

[10] = test system: LOU-NH91
In short: as §1

[11] = test system: NCI-H1975
In short: as §1

[12] = test system: NCI-H2126
In short: as §1

[13] = test system: NCI-H2228
In short: as §1

[14] = test system: NCI-H23
In short: as §1

[15] = test system: NCI-H2405
In short: as §1

[16] = test system: NCI-H3122
In short: as §1

[17] = test system: NCI-H596
In short: as §1

[18] = test system: NCI-H650
In short: as §1

[19] = test system: NCI-H661
In short: as §1

[20] = test system: NCI-H727
In short: as §1

[21] = test system: PC-3 [JPC-3]
In short: as §1

[22] = test system: SK-LU-1
In short: as §1

[23] = test system: SW 900
In short: as §1

Q: `Cc1csc(=NC2CCCCC2)n1/N=C/c1ccc(O)c(O)c1O` [MIM1] + Cc1nc(Nc2ncc(C(=O)Nc3c(C)cccc3Cl)s2)cc(N2CCN(CCO)CC2)n1 [Dasatinib] (partner 0.075 µM) was tested. Which relative viability ([1]; first compound 0.2 µM) did it give?
A: 0.612

Q: What about the relative viability ([1]; first compound 0.6325 µM) of the same compound?
A: 0.614

Q: And the relative viability ([1]; first compound 2 µM)?
A: 0.598

Q: And the relative viability ([1]; first compound 6.325 µM)?
A: 0.422

Q: And the relative viability ([1]; first compound 20 µM)?
A: 0.445

Q: And the relative viability ([2]; first compound 0.2 µM)?
A: 0.356

Q: And the relative viability ([2]; first compound 0.6325 µM)?
A: 0.424

Q: What about the relative viability ([2]; first compound 2 µM) of the same compound?
A: 0.339

Q: And the relative viability ([2]; first compound 6.325 µM)?
A: 0.29

Q: What about the relative viability ([2]; first compound 20 µM) of the same compound?
A: 0.292

Q: And the relative viability ([3]; first compound 0.2 µM)?
A: 0.594

Q: What about the relative viability ([3]; first compound 0.6325 µM) of the same compound?
A: 0.552

Q: And the relative viability ([3]; first compound 2 µM)?
A: 0.562

Q: What about the relative viability ([3]; first compound 6.325 µM) of the same compound?
A: 0.466

Q: What about the relative viability ([3]; first compound 20 µM) of the same compound?
A: 0.173

Q: What about the relative viability ([4]; first compound 0.2 µM) of the same compound?
A: 0.591

Q: And the relative viability ([4]; first compound 2 µM)?
A: 0.558

Q: And the relative viability ([4]; first compound 6.325 µM)?
A: 0.514

Q: And the relative viability ([4]; first compound 20 µM)?
A: 0.391

Q: What about the relative viability ([5]; first compound 0.2 µM) of the same compound?
A: 0.339

Q: What about the relative viability ([5]; first compound 0.6325 µM) of the same compound?
A: 0.343

Q: What about the relative viability ([5]; first compound 2 µM) of the same compound?
A: 0.334

Q: What about the relative viability ([5]; first compound 6.325 µM) of the same compound?
A: 0.344

Q: And the relative viability ([5]; first compound 20 µM)?
A: 0.255

Q: What about the relative viability ([6]; first compound 0.2 µM) of the same compound?
A: 0.216

Q: And the relative viability ([6]; first compound 2 µM)?
A: 0.228

Q: And the relative viability ([6]; first compound 6.325 µM)?
A: 0.24

Q: What about the relative viability ([6]; first compound 20 µM) of the same compound?
A: 0.181

Q: What about the relative viability ([7]; first compound 0.2 µM) of the same compound?
A: 0.376

Q: And the relative viability ([7]; first compound 0.6325 µM)?
A: 0.308

Q: And the relative viability ([7]; first compound 2 µM)?
A: 0.259

Q: What about the relative viability ([7]; first compound 6.325 µM) of the same compound?
A: 0.348

Q: And the relative viability ([7]; first compound 20 µM)?
A: 0.488

Q: And the relative viability ([8]; first compound 0.2 µM)?
A: 0.579

Q: What about the relative viability ([8]; first compound 0.6325 µM) of the same compound?
A: 0.696

Q: What about the relative viability ([8]; first compound 2 µM) of the same compound?
A: 0.677

Q: And the relative viability ([8]; first compound 6.325 µM)?
A: 0.629

Q: And the relative viability ([8]; first compound 20 µM)?
A: 0.16

Q: What about the relative viability ([9]; first compound 0.2 µM) of the same compound?
A: 0.422

Q: And the relative viability ([9]; first compound 0.6325 µM)?
A: 0.519

Q: And the relative viability ([9]; first compound 2 µM)?
A: 0.512

Q: What about the relative viability ([9]; first compound 6.325 µM) of the same compound?
A: 0.401

Q: What about the relative viability ([9]; first compound 20 µM) of the same compound?
A: 0.364

Q: What about the relative viability ([10]; first compound 0.2 µM) of the same compound?
A: 0.502

Q: And the relative viability ([10]; first compound 0.6325 µM)?
A: 0.529

Q: And the relative viability ([10]; first compound 2 µM)?
A: 0.537

Q: And the relative viability ([10]; first compound 6.325 µM)?
A: 0.497

Q: What about the relative viability ([10]; first compound 20 µM) of the same compound?
A: 0.365

Q: And the relative viability ([11]; first compound 0.2 µM)?
A: 0.355

Q: And the relative viability ([11]; first compound 0.6325 µM)?
A: 0.377

Q: And the relative viability ([11]; first compound 2 µM)?
A: 0.346

Q: And the relative viability ([11]; first compound 6.325 µM)?
A: 0.185

Q: What about the relative viability ([11]; first compound 20 µM) of the same compound?
A: 0.17

Q: What about the relative viability ([12]; first compound 0.2 µM) of the same compound?
A: 0.679

Q: What about the relative viability ([12]; first compound 0.6325 µM) of the same compound?
A: 0.582

Q: What about the relative viability ([12]; first compound 2 µM) of the same compound?
A: 0.583

Q: What about the relative viability ([12]; first compound 6.325 µM) of the same compound?
A: 0.471

Q: And the relative viability ([12]; first compound 20 µM)?
A: 0.287

Q: And the relative viability ([13]; first compound 0.2 µM)?
A: 0.505

Q: What about the relative viability ([13]; first compound 0.6325 µM) of the same compound?
A: 0.524

Q: And the relative viability ([13]; first compound 2 µM)?
A: 0.66

Q: And the relative viability ([13]; first compound 6.325 µM)?
A: 0.205

Q: And the relative viability ([13]; first compound 20 µM)?
A: 0.0988

Q: And the relative viability ([14]; first compound 0.2 µM)?
A: 0.826

Q: And the relative viability ([14]; first compound 2 µM)?
A: 0.684

Q: What about the relative viability ([14]; first compound 6.325 µM) of the same compound?
A: 0.471

Q: What about the relative viability ([14]; first compound 20 µM) of the same compound?
A: 0.246

Q: What about the relative viability ([15]; first compound 0.2 µM) of the same compound?
A: 0.21

Q: What about the relative viability ([15]; first compound 0.6325 µM) of the same compound?
A: 0.225

Q: What about the relative viability ([15]; first compound 2 µM) of the same compound?
A: 0.209

Q: And the relative viability ([15]; first compound 6.325 µM)?
A: 0.205

Q: What about the relative viability ([15]; first compound 20 µM) of the same compound?
A: 0.48

Q: And the relative viability ([16]; first compound 0.2 µM)?
A: 0.779

Q: What about the relative viability ([16]; first compound 0.6325 µM) of the same compound?
A: 0.717

Q: And the relative viability ([16]; first compound 2 µM)?
A: 0.882

Q: And the relative viability ([16]; first compound 6.325 µM)?
A: 0.325

Q: What about the relative viability ([16]; first compound 20 µM) of the same compound?
A: 0.122

Q: And the relative viability ([17]; first compound 0.2 µM)?
A: 0.646

Q: And the relative viability ([17]; first compound 0.6325 µM)?
A: 0.651

Q: What about the relative viability ([17]; first compound 2 µM) of the same compound?
A: 0.546

Q: What about the relative viability ([17]; first compound 6.325 µM) of the same compound?
A: 0.61

Q: What about the relative viability ([17]; first compound 20 µM) of the same compound?
A: 0.597

Q: And the relative viability ([18]; first compound 0.2 µM)?
A: 0.496

Q: And the relative viability ([18]; first compound 0.6325 µM)?
A: 0.435

Q: And the relative viability ([18]; first compound 2 µM)?
A: 0.459

Q: What about the relative viability ([18]; first compound 6.325 µM) of the same compound?
A: 0.416

Q: What about the relative viability ([18]; first compound 20 µM) of the same compound?
A: 0.301

Q: What about the relative viability ([19]; first compound 0.2 µM) of the same compound?
A: 0.997

Q: And the relative viability ([19]; first compound 0.6325 µM)?
A: 0.866

Q: And the relative viability ([19]; first compound 2 µM)?
A: 0.87

Q: And the relative viability ([19]; first compound 6.325 µM)?
A: 0.406

Q: What about the relative viability ([19]; first compound 20 µM) of the same compound?
A: 0.224

Q: What about the relative viability ([20]; first compound 0.2 µM) of the same compound?
A: 0.383

Q: What about the relative viability ([20]; first compound 0.6325 µM) of the same compound?
A: 0.36

Q: What about the relative viability ([20]; first compound 2 µM) of the same compound?
A: 0.276

Q: What about the relative viability ([20]; first compound 6.325 µM) of the same compound?
A: 0.356

Q: And the relative viability ([20]; first compound 20 µM)?
A: 0.267

Q: What about the relative viability ([21]; first compound 0.2 µM) of the same compound?
A: 1.03

Q: What about the relative viability ([21]; first compound 0.6325 µM) of the same compound?
A: 0.976

Q: What about the relative viability ([21]; first compound 2 µM) of the same compound?
A: 0.981

Q: What about the relative viability ([21]; first compound 6.325 µM) of the same compound?
A: 0.904

Q: What about the relative viability ([21]; first compound 20 µM) of the same compound?
A: 0.582

Q: What about the relative viability ([22]; first compound 0.2 µM) of the same compound?
A: 0.155

Q: What about the relative viability ([22]; first compound 0.6325 µM) of the same compound?
A: 0.19

Q: What about the relative viability ([22]; first compound 2 µM) of the same compound?
A: 0.189

Q: And the relative viability ([22]; first compound 6.325 µM)?
A: 0.166

Q: What about the relative viability ([22]; first compound 20 µM) of the same compound?
A: 0.235

Q: And the relative viability ([23]; first compound 0.2 µM)?
A: 0.619

Q: What about the relative viability ([23]; first compound 0.6325 µM) of the same compound?
A: 0.804

Q: And the relative viability ([23]; first compound 2 µM)?
A: 0.508

Q: What about the relative viability ([23]; first compound 6.325 µM) of the same compound?
A: 0.449

Q: And the relative viability ([23]; first compound 20 µM)?
A: 0.23

— the supplement of paper PMC10307832
